The values below come from US20220145249A1, “A Method of Altering a Differentiation Status of a Cell” (Agency for Science, Technology and Research, priority 2019, published 2022).

What all share (type): cell-based, human
Data set [1] has as its system iPSC-CRISPR dCas9 SAM cells. In words: minimum inhibitory concentration (MIC) assay for geneticin. An excerpt:
The lentiviral vector backbone encodes geneticin as an antibiotic selection marker.

Data set [2] deals with EPO. In words: EPO ELISA of spent medium after endogenous EPO activation. The note with it: iPSC-CRISPR dCas9 SAM cells, spent medium of days 3 and 4 pooled, concentrated with 10 KDa filter, retentate, commercial ELISA. Here is the method: FIG. 14 Endogenous activation of erythropoietin (EPO) growth factor in human iPSC-dCas9 SAM cells. (a) qPCR data collected after 4 days of EPO sgRNAs lentivirus (unconcentrated) transduction. (b) EPO ELISA was carried out using two commercially available sources to quantify the CRISPRa EPO. For this, the spent mTesR medium of cells transduced with EPO_g2 were collected on days 3 and 4, the pooled medium was concentrated using Amicon Ultra-15 centrifugal filter (10 KDa cutoff membrane) since the EPO MW is 21 KDa. The retentate was used for quantification using ELISA. According to the standards, the EPO secreted in the medium is in the range of 47-51 IU/mL of EPO.
For this, four different sgRNAs were designed for each of the growth factors/cytokines and constructed lentiviral vectors as mentioned previously (Table 4). For testing the activity of EPO expression, the lentiviruses of four different sgRNAs were produced and screened for the best performing guide in activating EPO expression. The iPSC-CRISPR dCas9 SAM cells were transduced with the unconcentrated lentivirus supernatant of the four sgRNAs individually and tested for their EPO gene expression using qPCR analysis on day 4 cells after transduction. […] Further, the spent media of the cells were collected from two wells of a 12-well plate on days 3 and 4 transduced with EPO_g2 and was stored in −20° C. […]

Data set [3] has as its system EPO. In words: qPCR screening of EPO sgRNA lentiviruses. The note with it: day 4 after transduction, unconcentrated lentivirus supernatant. As for the experimental part: cDNA was synthesized from 1 μg of RNA using the Maxima First Strand cDNA Synthesis Kit (ThermoFisher). Quantitative real-time polymerase chain reaction (qPCR) was carried out using QuantStudio 3 Real-Time PCR System (ThermoFisher). The samples were run in biological triplicates and expression levels normalized using the geometric mean of the “housekeeping” gene: glyceraldehyde phosphate dehydrogenase (GAPDH).
For this, four different sgRNAs were designed for each of the growth factors/cytokines and constructed lentiviral vectors as mentioned previously (Table 4). For testing the activity of EPO expression, the lentiviruses of four different sgRNAs were produced and screened for the best performing guide in activating EPO expression. The iPSC-CRISPR dCas9 SAM cells were transduced with the unconcentrated lentivirus supernatant of the four sgRNAs individually and tested for their EPO gene expression using qPCR analysis on day 4 cells after transduction. […] Further, the spent media of the cells were collected from two wells of a 12-well plate on days 3 and 4 transduced with EPO_g2 and was stored in −20° C. Next, an Amicon Ultra-15 centrifugal filter was used with 10KDa cut-off membrane (EPO molecular weight: 21 KDa) to concentrate the EPO protein and the retentate washed with 1× PBS was used for ELISA assay.

In the case of `CN[C@@H]1[C@@H](O)[C@@H](O[C@@H]2[C@@H](O)[C@H](O[C@H]3O[C@H]([C@@H](C)O)[C@@H](O)[C@H](O)[C@H]3N)[C@@H](N)C[C@H]2N)OC[C@]1(C)O` [geneticin], the MIC of geneticin in data set [1] was 100 µg/mL.

As for “EPO_g2: sgRNA for EPO, guide sequence TGTGCGTGAGGGGTCGCCAG (listed as DNA, chemistry not given here)”, in the data set with EPO [2], the “EPO secreted in the medium” value is 47-51 IU/mL. Moreover, in the data set with EPO [3], the “EPO gene expression compared to non-transduced control cells” value is reported as “higher EPO gene expression”.
